System: LLC (Lewis Lung Cancer) tumor
Assay: Antitumor experiment in LLC mouse model (subcutaneous xenograft LLC tumor)
Type: in vivo, C57BL/6 mice
Settings: i.g.; for TV (mm^3) on day 0 Mean ± SD: day 0 (grouping, before dosing from day 1); for TGI (%): from tumor weight on day 15 vs control group
Procedure: In Example 1, the TLR7 agonist was
[drawing 58] and anlotinib was anlotinib dihydrochloride.
LLC (Lewis Lung Cancer) Mice: subcutaneously grafted tumor cells of lung cancer (concentration: 2×10^6/mL×0.2 mL/mouse) were inoculated into C57BL/6 mice at the right side armpit (the site to be inoculated was shaved before inoculating) in a sterile environment, and passaged using a block insertion method. The C57BL/6 mice were female and 16-18 g in weight, and the breeding environment was SPF level. The diameter of the C57BL/6 xenograft tumor was measured using a vernier caliper, and the animals were randomly divided into five groups when the tumors grew to 100-300 mm^3: • i. Control group (blank control); • ii. Monotherapy group: anlotinib 5 mg/kg/d (positive control), with normal saline as a vehicle; • iii. Monotherapy group: TLR7 agonist 20 mg/kg, t.i.w., with ethanol/Tween 80 (v:v=1:1) as a vehicle; • iv. Monotherapy group: anlotinib 1 mg/kg/d, with normal saline as a vehicle; and • v. Combination therapy group: TLR7 agonist 20 mg/kg, t.i.w., and anlotinib 1 mg/kg/d.
The mice in the control group and monotherapy groups were administered in a volume of 10 mL/kg, and the mice in the combination therapy group were administered with two drugs simultaneously, each in a volume of 10 mL/kg. Weights and diameter of the tumor were measured every three days, and the behavior of mice was observed daily.
Mice were divided into groups on day 0, with 12 in the control group and 6 in each of the remaining groups. The drugs were administered intragastrically (i.g.) from day 1. The treatment was discontinued on day 12. During the experiment, the tumor volume was measured on days 0, 3, 6, 9, 12 and 15, and the tumors were removed and weighed on day 15, i.e., at the end of experiment.
The tumor volume and the tumor growth inhibition were calculated using the following formulae: Tumor volume (TV)=(L×W^2)/2. Tumor growth inhibition (TGI)=(1−tumor weight in the treatment group/tumor weight in the control group)×100%.

| Compound | TV (mm^3) on day 0 Mean ± SD (TLR7 agonist 20 mg/kg, t.i.w.) | TV (mm^3) on day 12 Mean ± SD (TLR7 agonist 20 mg/kg, t.i.w.) | TV (mm^3) on day 15 Mean ± SD (TLR7 agonist 20 mg/kg, t.i.w.) | TGI (%) (TLR7 agonist 20 mg/kg, t.i.w.) | growth of LLC tumor (result in words) (TLR7 agonist alone, 20 mg/kg, t.i.w., summary of Table 1) | TV (mm^3) on day 0 Mean ± SD (anlotinib 1 mg/kg/d × 11 d) | TV (mm^3) on day 12 Mean ± SD (anlotinib 1 mg/kg/d × 11 d) | TV (mm^3) on day 15 Mean ± SD (anlotinib 1 mg/kg/d × 11 d) | TGI (%) (anlotinib 1 mg/kg/d × 11 d) | TV (mm^3) on day 0 Mean ± SD (anlotinib 5 mg/kg/d × 11 d, female C57BL/6 mice with LLC tumor) | TV (mm^3) on day 12 Mean ± SD (anlotinib 5 mg/kg/d × 11 d) | TV (mm^3) on day 15 Mean ± SD (anlotinib 5 mg/kg/d × 11 d) | TGI (%) (anlotinib 5 mg/kg/d × 11 d) |
| --- | --- | --- | --- | --- | --- | --- | --- | --- | --- | --- | --- | --- | --- |
| CCCCOc1nc(N)c2[nH]cc(Cc3ccc(CN4CCCC4)cc3)c2n1 [TLR7 agonist] | 212.98 ± 47.17 mm^3 | 2353.68 ± 663.83 mm^3 | 3257.62 ± 577.45 mm^3 | 30.1% | can inhibit the growth of LLC tumor |  |  |  |  |  |  |  |  |
| COc1cc2c(Oc3ccc4[nH]c(C)cc4c3F)ccnc2cc1OCC1(N)CC1 [Anlotinib, 1-[[[4-(4-fluoro-2-methyl-1H-indol-5-yl)oxy-6-methoxyquinolin-7-yl]oxy]methyl]cyclopropylamine] |  |  |  |  |  | 213.25 ± 39.34 mm^3 | 2697.21 ± 747.99 mm^3 | 4114.08 ± 1213.40 mm^3 | 13.5% | 213.47 ± 38.16 mm^3 | 1393.38 ± 532.59 mm^3 | 1811.75 ± 736.45 mm^3 | 63.4% |
